In patent publication EP1285971B1, “Methods for the phenotypic and genotypic assessment of the drug sensitivity of HIV integrase variants” (Tibotec Pharmaceuticals Ltd., priority 2001, dated 2003):

Tests used:
Assay in all cases: microbe, parasite or virus in culture
Details in all cases: for fold change: fold change in EC50
patient_146514 = assay type: cell-based, HIV
Protocol: (§1) The integrase encoding sequence was amplified from either wildtype HIV-1 (IIIB) or NL4.3 virus, or HXB2D site-directed mutant viruses containing mutations in integrase (such as T66I, S153Y, M154I, or combinations thereof) (Hazuda et al., Science 2000, 287, 646-650), or patient samples. Starting from RNA, extracted from virus supernatant or plasma using the QIAamp® viral RNA extraction kit (Qiagen), cDNA was synthesized by reverse transcription (Expand TM reverse transcriptase, 30 min at 42°C) with the primer 3'EGINT10 (SEQ ID NO 11), followed by a nested PCR. The outer PCR was performed with the primers 5'EGINT1 (SEQ ID NO 1) and 3'EGINT10 (SEQ ID NO 11) (ΔR-IN-vif construct) or 5'EGINT3 (SEQ ID NO 4) and 3'EGINT10 (SEQ ID NO 11) (ΔIN construct) (Expand™ High Fidelity PCR system), and 5 µl of the outer product was used for an inner PCR with primers 5'EGINT2 (SEQ ID NO 3) and 3'EGINT11 (SEQ ID NO 12) (ΔR-IN-vif construct) or 5'EGINT4 (SEQ ID NO 5) and 3'EGINT6 (SEQ ID NO 7) (ΔIN construct). In a second protocol the outer primers were identical as described above, the inner primers are 5'EGINT5 (SEQ ID NO 6) and 3'EGINT6 (SEQ ID NO 7). The amplicons can be used for genotyping and phenotyping. Cycling conditions for both PCRs are denaturation for 3 min at 95°C, followed by 30 cycles of 1 min 90°C, 30 sec 55°C, and 2 min 72°C. A final extension was performed at 72°C for 10 min. For recombination, PCR products are purified using the QiaQuick® 96 PCR BioRobot kit (Qiagen), according to the manufacturer's protocol. If the protocol starts from DNA containing the HIV material such as proviral DNA, the reverse transcriptase step is not needed. The nested approach is also not needed when starting from proviral DNA. The obtained amplicons were sequenced using the primers: In_seq1F (SEQ ID NO 17), In_seq2F (SEQ ID NO 18), In_seq3F (SEQ ID NO 19), IN_seq1R (SEQ ID NO 20), IN_seq2R (SEQ ID NO 21), and IN_seq3R (SEQ ID NO 22).
(§2) A ΔR-IN-vif or ΔIN deletion construct was generated by site-directed mutagenesis on the template pSV40HXB2D with the primers MUT-IN1 (SEQ ID NO 13) and MUT-IN2 (ΔR-IN-vif construct) (SEQ ID NO 14) or MUT-IN3 (SEQ ID NO 15) and MUT-IN4 (SEQ ID NO 16) (ΔIN construct) (protocol Site-directed mutagenesis kit, Stratagene). After DpnI digestion for removal of the methylated template DNA, the construct was digested with SmaI and ligated to circulize the plasmid. The plasmid was transformed into competent cells such as Top10 cells, and colonies were screened for the presence of the deletion construct. The IN-deletion construct was checked by sequence analysis with primers 5'EGINT1 (SEQ ID NO 1) or […] and 3'EGINT10 (SEQ ID NO 11) or 3'EGINT11 (SEQ ID NO 12). For use in recombination experiments, large-scale plasmid DNA preparations were linearized by SmaI digestion and recombined with PCR amplified integrase genes from wild type, mutant, or patient viruses. The plasmid containing the integrase deletion (ΔIN) has been deposited pSV40HXB2D-ΔIN. The sequence of said plasmid is 14377 nucleotides long. The ΔR-IN-vif deletion construct is 13975 nucleotides long. The pSV40HXB2D-ΔIN was deposited at the Belgian Coordinated Collections of Micro-Organisms located at the Universiteit Gent - Laboratorium voor Moleculaire Biologie on August 5, 2002 and the accession number is LMBP 4574.
(§3) Recombinant virus was produced by co-transfection by electroporation of the SmaI-linearized IN-deletion construct and the integrase amplicon into MT4 cells or MT4 cells equipped with an LTR driven reporter gene construct. Production of recombinant virus was evaluated by scoring the cytopathogenic effect (CPE) that is induced by HIV-infection of MT4 cells or by the LTR-driven reporter signal induced by HIV infection in MT4 reporter cells.

NL 4-3 = assay type: cell-based, HIV-1
Protocol: as §1, §2, §3

WT III B = assay type: cell-based, HIV-1
Protocol: as §1, §2, §3

[1] = AVE 2, patient_146514, primer set 3
[2] = Human immunodeficiency virus 1, AVE 2, patient_146514, primer set 3
[3] = Human immunodeficiency virus 1, AVE 1, NL 4-3, primer set 3
[4] = Human immunodeficiency virus 1, NL43, AVE 4, NL4-3, primer set 4
[5] = Human immunodeficiency virus 1, AVE 3, WT III B, primer set 3
[6] = Human immunodeficiency virus 1, AVE 5, WT III B, primer set 4

Row | Compound | fold change (patient_146514; [1]) | EC50 (patient_146514; [2]) [nM] | fold change (NL 4-3; AVE 1, NL 4-3, primer set 3) | fold change (NL 4-3; AVE 4, NL4-3, primer set 4) | EC50 (NL 4-3; [3]) [nM] | EC50 (NL 4-3; [4]) [nM] | fold change (WT III B; AVE 3, WT III B, primer set 3) | fold change (WT III B; AVE 5, WT III B, primer set 4) | EC50 (WT III B; [5]) [nM] | EC50 (WT III B; [6]) [nM] | EC50 (patient_146514; [1]) [nM] | EC50 (NL 4-3; AVE 1, NL 4-3, primer set 3) [nM] | EC50 (WT III B; AVE 3, WT III B, primer set 3) [nM] | EC50 (WT III B; AVE 5, WT III B, primer set 4) [nM]
1 | O=c1[nH]cnc2c1ncn2[C@H]1CC[C@@H](CO)O1 [DDI, Didanosine] | 2,2 | 10400 | 0,7 | 1,6 | 3360 | 7890 | 0,5 | 1,6 | 2540 | 7500 |  |  |  | 
2 | Cc1ccnc2c1NC(=O)c1cccnc1N2C1CC1 [NVP, Nevirapine] | 1,7 | 151 | 1,1 | 1,7 | 97.6 | 151 | 0,8 | 1,6 | 66.2 | 134 |  |  |  | 
3 | CC(C)c1nc(CN(C)C(=O)N[C@H](C(=O)N[C@@H](Cc2ccccc2)C[C@H](O)[C@H](Cc2ccccc2)NC(=O)OCc2cncs2)C(C)C)cs1 [RTV, ritonavir] | 1,3 | 192 | 0,6 | 1,2 | 87.1 | 172 | 0,3 | 1,0 | 44.9 | 154 |  |  |  | 
4 | Cc1cc(C#N)cc(C)c1Oc1nc(Nc2ccc(C#N)cc2)nc(N)c1Br [Compound 1, 4-[[6-amino-5-bromo-2-[(4-cyanophenyl)amino]-4-pyrimidinyl]oxy]-3,5-dimethyl-benzonitrile] | 1,7 |  | 1,0 | 2,3 |  | 2.3 | 0,9 | 1,2 |  |  | 1.7 | 1 | 0.9 | 1.2
5 | CC(C)CN(C[C@@H](O)[C@H](Cc1ccccc1)NC(=O)O[C@H]1CCOC1)S(=O)(=O)c1ccc(N)cc1 [APV, Amprenavir] | 1,4 | 117 | 0,6 | 1,3 | 49.6 | 113 | 0,5 | 0,7 | 46 | 60.6 |  |  |  | 
6 | CC(C)(C)NC(=O)[C@@H]1C[C@@H]2CCCC[C@@H]2CN1C[C@@H](O)[C@H](Cc1ccccc1)NC(=O)[C@H](CC(N)=O)NC(=O)c1ccc2ccccc2n1 [SQV, Saquinavir] | 1,7 | 34.5 | 1,2 | 1,9 | 23.3 | 38.5 | 0,7 | 1,8 | 13 | 35.6 |  |  |  | 
